Experimental data reported in a melting point compilation (Tetko et al.; mined from patent text by program, amines drawn as free bases though some values may be those of a salt).

Structure (SMILES) | melting point
CCCCNC(C)=C1C(=O)OC(=O)C(C(C)=O)=C1O | 112 to 114 °C
O=C(CNC(=O)c1ccc([N+](=O)[O-])c(I(=O)=O)c1)OCC(Cl)(Cl)Cl | 128 to 130 °C
CC(C)(C)OC(=O)N[C@@H]1CN[C@H]2CCCO[C@H]21 (relative stereo) | 110 to 111 °C
Cc1c(Cc2cccc(C(F)(F)F)c2)sc2c(-c3cccc(C(=O)NCC(N)=O)c3)cccc12 | 187 to 188 °C
CCCCCCCN(C)C(=O)Nc1ccc(F)cc1NC(=O)c1cc(C(C)(C)C)c(O)c(C(C)(C)C)c1 | 164 to 167 °C
COC(=O)C(O)(c1cccc(C(F)(F)F)c1)c1cccc(C(F)(F)F)c1 | 69 to 70 °C
CCc1nc2cc(N3CCN(C)CC3)nc(CC)n2n1 | 87 to 88 °C
CN1CCC(C2c3ccccc3CCn3ncnc32)CC1 (stereo not drawn) | 134 °C
CCOC(=O)C(=O)c1cc(Cl)c(C)cc1NC(=O)OC(C)(C)C | 111 °C
CCSc1sc(C#N)c(N(C)C(C)=O)c1C#N | 68 °C
CC(C)c1nn(-c2ccc(C(F)(F)F)cn2)cc1CCCOc1cc(CCC(=O)O)n(C)n1 | 131 to 132 °C
Cc1c(OCC(F)(F)C(F)F)ccnc1CO | 67 to 68 °C
O=S1(=O)N2CN3CN1CP(C3)C2 | 274 to 275 °C
CC(C)(C)Nc1cc(NC(C)(C)C)nc(N2CCNCC2)n1 | 135 to 138 °C
COCCOc1cccc(-c2ccc(C3CCN(S(=O)(=O)C(C)(C)C(=O)NO)CC3)cc2C)n1 | 134 to 138 °C
COC(=O)c1cccc2c1c(C(C[N+](=O)[O-])C[N+](=O)[O-])cn2C | 142 to 145 °C
OC[C@@H]1CC[C@H](CO)O1 | 128 to 129 °C
CCOC(=O)c1[nH]c(I)c(C)c1CC | 122 to 124 °C
O=C(Nc1ccc(S(=O)(=O)C(F)(F)F)cc1Cl)c1cc(-c2ccc(F)cc2F)cc(C23CC4CC(CC(C4)C2)C3)c1O | 177 to 178 °C
CC1(C)OC(=S)Nc2ccc(-c3csc(C#N)c3)cc21 | 242 to 243 °C
CCCCCCCc1ccc(NC2=NCCS2)cc1 | 81 to 82 °C
COC(=O)CC(NCCCN(C)C)C(=O)O (stereo not drawn) | 171 to 172 °C
Nc1cccc(-c2ccc(CCN3CCN(C(=O)Cc4ccc(F)cc4)CC3)cc2)n1 | 143 to 145 °C
CCOc1cccc(CN2CCc3cc(O)ccc3C2)c1 | 120 to 121 °C
CCOC(=O)C1=C(C)NC(C)=C(C(=O)OCC)C1c1ccccc1Br | 144 to 145 °C

Structure (SMILES) | melting point
CCCC(CCC)Nc1nc(C)nc(Oc2c(Br)cc(C(C)(C)O)cc2OC)c1[N+](=O)[O-] | 119 to 120 °C
Nc1ccc(C(=S)OC2CCCCC2)c(Cl)c1 | 97 to 100 °C
C=CCN(C(=O)c1ccco1)c1c(C)cccc1C | 68 to 69 °C
CCCC(=O)c1cnc2cc(Nc3ccc(O)cc3C)sc2c1 | 228 to 230 °C
COc1ccc2nc(O)c(O)nc2c1 | > 300 °C
CC(C)(C)c1csc(N)c1C#N | 92 °C
O=C(Nc1cccc(S(=O)(=O)N(CCO)CCO)c1)c1cnn2c(C(F)F)cc(-c3ccc(C(F)(F)F)cc3)nc12 | 208 °C
NC(=O)C1(Nc2ccccc2)CCN(C2CCCc3ccccc32)CC1 (stereo not drawn) | 186 to 187 °C
N#CCc1ccc2c(c1)Cc1cccnc1O2 | 166 to 167 °C
CCc1cc(C(C)=O)c(O)cc1OCc1ccc(C(=O)O)c(O)c1 | 214 to 216 °C
COCN1C(=O)CN=C(c2ccccc2)c2cc(NO)ccc21 | 168 to 170 °C
Cc1ncc2c(c1OCC(=O)O)COC2(C)c1ccc(F)cc1 (stereo not drawn) | 184 to 186 °C
CC(C)(C)OC(=O)N1CC[C@@H](CN(Cc2ccccc2)Cc2ccccc2)[C@H](O)C1 (relative stereo) | 133 °C
COc1cc2c(Nc3ccc(Cl)cc3F)ncnc2cc1OCc1ccnc(C#N)c1 | 209 to 213 °C
CC(C)C[C@H](NC(=O)OCc1ccccc1)C(=O)N[C@@H](Cc1ccccc1)C(=O)O | 120 to 122 °C
O=C(c1cc(Cl)cc(Cl)c1)N1CCN(Cc2ccccc2)C[C@H]1Cc1c[nH]c2ccccc12 | 93 to 98 °C
CC(=O)NC[C@@H]1CCCc2cc(S(=O)(=O)c3ccccc3)cc(F)c21 | 152 to 154 °C
O=C1C2=C(CCCC2)C(=O)N1c1ccc(Br)cc1F | 102 °C
CCCc1nc2c(N)nc3ccccc3c2n1CCc1cc(-c2ccc(F)cc2)no1 | 208 to 209 °C
Cc1nc2c(O[C@@H]3c4ccccc4C[C@H]3O)cc(C(=O)O)cn2c1C (relative stereo) | 229 to 231 °C
CCc1nn(Cc2ccccn2)c(C(N)=O)c1NC(=O)c1cc(S(C)(=O)=O)ccc1OCC(C)C | 225 to 227 °C
Cn1cc(-c2ccc3nc(NC(=O)c4ccc(C(C)(C)C)nc4)cn3c2)cn1 | 228 to 230 °C
NC(=O)c1cc2cc(N3CCN(Cc4ccccc4)CC3)ccc2o1 | 206 to 208 °C
CN(CCOc1cccc(Cl)c1CN)Cc1ccccc1 | 85 °C
CCN1CC(CCN(C)C)Oc2ncccc2C1=S (stereo not drawn) | 73 °C

Next, values leading:

melting point | Structure (SMILES)
140 to 141 °C | CCOC(=O)c1cnc2c(-c3cccc(Cl)c3)cnn2c1Cl
162 to 164 °C | CC(=O)Nc1c(C(N)=O)n[nH]c1C(C)C
86 to 90 °C | CC1=Cc2cc(F)c(F)cc2C1
231 to 232 °C | O=S(=O)(Nc1ncncc1-c1ccc(Cl)cc1)c1ccc(O)cc1
99 to 102 °C | O=C(Nc1ccccc1N1CCc2ccccc21)c1ccco1
221 to 222 °C | OC(CNc1ccnc2cc(Cl)ccc12)c1ccccc1 (stereo not drawn)
79 to 80 °C | CCCC#CCn1ncc(-c2ccc(S(C)(=O)=O)cc2)c(-c2ccc(F)cc2)c1=O
88 to 89 °C | Cc1csc(C)c1N(Cn1cccn1)C(=O)CCl
178 to 188 °C | Cc1nccc(-c2cccc(S(=O)(=O)n3c(CCCC(=O)O)cc4nc(Cl)ccc43)c2)n1
229 to 230 °C | O=c1cc(O)c2ccc(F)cc2o1
189 to 193 °C | O=C(c1ccc(Nc2ccccc2[N+](=O)[O-])cc1)c1ccccc1O
218 to 220 °C | COc1ccc(Nc2nc(-c3ccccc3)cc(N3CCC(OC(=O)CCC(=O)O)CC3)n2)cc1Cl
95 °C | N#C[C@H](O)c1cccc(Oc2ccccc2)n1
168 °C | COc1ccc2oc(C(=O)O)c(OC)c2c1
173 to 176 °C | Cn1nc(OCC(=O)c2ccc(F)cc2)c(-c2ccc(F)cc2)c1-c1ccc(S(C)(=O)=O)cc1
257 to 258 °C | NS(=O)(=O)C1=CCC(n2nc(C(F)(F)F)c3ccc4ccccc4c32)C=C1 (stereo not drawn)
59 to 60 °C | CC(C)CNC(=O)C(C)(C)c1ccc(-c2cccn2C)cc1
115 °C | CC(=NO)c1ccccc1NC(C(N)=O)c1c(Cl)cccc1Cl (stereo not drawn)
176 to 177 °C | CC(C)Cn1c(=O)n(C)c(=O)c2c(C#CCCCO)n(Cc3cccc4ccccc34)cc21
159 to 161 °C | O=C(O)c1cc(OCCCCCCc2cccc(O)c2O)ccc1O
204 to 210 °C | CCOC(=O)c1[nH]c2cc(C(F)(F)F)ccc2c1N
59 to 60 °C | CCCCCCCCCCCCCc1c[nH]c(C(=O)OCC)c1
85 °C | CCN(CC)c1nc(Cl)c([N+](=O)[O-])s1
